Patent publication US20020110601A1, “Antineoplastic platinum therapeutic method and composition” (priority 2000, published 2002)

Assays:
[1] = tested on: malignant pleural mesothelioma; assay: Intrapleural administration in malignant pleural mesothelioma: indwelling catheter versus needle; set-up: species or system human; conditions: in vivo
Procedure: The first cycle of platinum drug by the present invention was administered 7 days after a baseline thoracoscopy. […] The starting fluid volume infused was 225 ml. Dosages of up to about 450 mg/M^2 are useful, but the empirical end point is compromised respiration such as shortness of breath. […] Repeated administrations were given every 3 to 4 weeks with attention to the presence or absence of a draining pleural effusion without loculation or (adhesions). That is a loculation surrounding the catheter entry must be broken u or carefully drained at the time of additional drug introduction to avoid hydrostatic pressure increases. […] If the fluid was still draining through the indwelling catheter, the patient received a third treatment seven days after the this thoracoscopy. […] While the course of treatment is within the skill of the medical professional with a view to the presenting condition of each patient, some initial parameters are noted. Intrapleural infusion is usefully held between consecutive cycles until the absolute granulocyte count is >1,500/mm^3 and platelets >100,000/mm^3 and complete recovery of non-hematological toxicities.

[2] = tested on: malignant pleural effusions; conditions: human, in vivo
Procedure: A Phase I trial using the procedures of the present invention employed L-NDDP administered by intrapleural administration in patients with malignant pleural effusions.
Therapy began with a starting dose was 75 mg/m^2. […] Four patients were treated at the highest tested dose of 550 mg/m^2.

[3] = in vivo, iv; cited from earlier work

## liposomal-cis-bis-neodecanoato-trans-R,R-1,2-diaminocyclohexane platinum (II) [L-NDDP]
[1]
  extravasation and sepsis: avoided extravasation and sepsis
[2]
  local pain: no local pain
  toxicity: mild nausea and vomiting
[2]; iv
  systemic toxicity: No systemic toxicity
[3]
  dose limiting toxicity: myelosuppression
